One molecule from ChEMBL document CHEMBL6103628, “Structural Optimization of Covalent Inhibitors for Deubiquitinase ChlaDUB1 of Chlamydia trachomatis as Antibiotic Agents” (J Med Chem, 2025) can be followed below.

Converted amounts (≈) assume the structure as drawn. The source made the active and inactive calls. The rule behind the calls is not given here.

In data set [1] the target is T1, Deubiquitinase and deneddylase Dub1 (Chlamydia trachomatis serovar L2 (strain ATCC VR-902B / DSM 19102 /434/Bu)) (UniProt B0B9A0).
T1 sequence (whole entry): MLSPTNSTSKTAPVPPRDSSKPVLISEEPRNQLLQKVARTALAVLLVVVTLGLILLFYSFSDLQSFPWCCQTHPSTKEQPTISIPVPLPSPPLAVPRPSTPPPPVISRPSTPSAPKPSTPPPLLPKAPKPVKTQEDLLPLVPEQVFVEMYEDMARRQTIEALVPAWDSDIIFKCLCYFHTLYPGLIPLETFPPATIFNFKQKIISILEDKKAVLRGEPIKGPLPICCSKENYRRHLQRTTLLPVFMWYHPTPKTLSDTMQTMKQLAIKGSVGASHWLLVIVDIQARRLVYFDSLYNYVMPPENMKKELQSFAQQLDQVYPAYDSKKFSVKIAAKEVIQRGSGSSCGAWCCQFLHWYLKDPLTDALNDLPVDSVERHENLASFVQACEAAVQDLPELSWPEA
As to the kind of experiment: Inhibition of recombinant Chlamydia trachomatis DUB1 (130 to 401 residues) using Ub-Rh110Gly as fluorogenic substrate at highest concentration incubated for 60 to 360 mins by enzymatic analysis. The conditions noted are these: time 60-360 min.

Data set [2] deals with T1, Deubiquitinase and deneddylase Dub1 (Chlamydia trachomatis serovar L2 (strain ATCC VR-902B / DSM 19102 /434/Bu)). As to the kind of experiment: Inhibition of recombinant Chlamydia trachomatis DUB1 (130 to 401 residues) using Ub-Rh110Gly as fluorogenic substrate at 100 to 500 uM incubated for 20 to 240 mins by enzymatic analysis relative to control. The conditions noted are these: dose 100-500 µM, time 20-240 min.

Data set [3] has as its target T2, Ubiquitin carboxyl-terminal hydrolase 28 (Homo sapiens) (UniProt Q96RU2).
T2 sequence (whole entry): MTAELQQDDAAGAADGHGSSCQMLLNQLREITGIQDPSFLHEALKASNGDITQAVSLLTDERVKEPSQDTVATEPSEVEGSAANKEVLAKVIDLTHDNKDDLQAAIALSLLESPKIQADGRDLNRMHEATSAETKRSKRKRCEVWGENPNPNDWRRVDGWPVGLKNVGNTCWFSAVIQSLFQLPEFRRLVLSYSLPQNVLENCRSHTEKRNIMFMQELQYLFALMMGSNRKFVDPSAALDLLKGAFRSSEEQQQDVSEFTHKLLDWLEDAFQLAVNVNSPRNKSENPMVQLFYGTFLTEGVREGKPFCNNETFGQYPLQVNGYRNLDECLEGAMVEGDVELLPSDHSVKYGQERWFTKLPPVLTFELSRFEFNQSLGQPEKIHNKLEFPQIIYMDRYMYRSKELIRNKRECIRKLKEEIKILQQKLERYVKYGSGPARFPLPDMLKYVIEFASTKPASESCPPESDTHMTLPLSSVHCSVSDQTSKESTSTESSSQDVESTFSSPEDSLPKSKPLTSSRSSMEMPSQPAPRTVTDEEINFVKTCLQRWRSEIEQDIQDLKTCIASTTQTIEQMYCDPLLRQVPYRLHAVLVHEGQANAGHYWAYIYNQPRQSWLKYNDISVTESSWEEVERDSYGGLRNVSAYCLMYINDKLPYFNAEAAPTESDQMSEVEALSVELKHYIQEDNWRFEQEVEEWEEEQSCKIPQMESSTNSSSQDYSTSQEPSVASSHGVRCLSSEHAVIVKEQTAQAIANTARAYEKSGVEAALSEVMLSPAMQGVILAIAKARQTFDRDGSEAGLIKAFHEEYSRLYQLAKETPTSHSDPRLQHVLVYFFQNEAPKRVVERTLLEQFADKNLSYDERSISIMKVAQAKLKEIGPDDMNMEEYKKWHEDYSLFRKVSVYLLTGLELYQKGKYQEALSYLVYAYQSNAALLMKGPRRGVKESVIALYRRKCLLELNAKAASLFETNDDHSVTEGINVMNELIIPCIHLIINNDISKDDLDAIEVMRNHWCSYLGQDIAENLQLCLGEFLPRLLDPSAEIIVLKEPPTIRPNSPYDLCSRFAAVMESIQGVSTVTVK
As to the kind of experiment: Inhibition of human USP28 at 35 uM relative to control.

Data set [4] deals with T3, Ubiquitin carboxyl-terminal hydrolase isozyme L3 (Homo sapiens) (UniProt P15374).
T3 sequence (whole entry): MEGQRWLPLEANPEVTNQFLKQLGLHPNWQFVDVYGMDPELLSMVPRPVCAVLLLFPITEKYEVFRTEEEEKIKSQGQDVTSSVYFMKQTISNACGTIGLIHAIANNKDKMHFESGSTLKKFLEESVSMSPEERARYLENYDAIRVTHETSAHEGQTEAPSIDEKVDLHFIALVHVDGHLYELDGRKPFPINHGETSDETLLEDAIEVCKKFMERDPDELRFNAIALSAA
Briefly: Inhibition of human UCHL3 at 35 uM relative to control.

For data set [5], the target named is T4, Deubiquitinase and deneddylase Dub2 (Chlamydia trachomatis) (UniProt O84875).
T4 sequence (whole entry): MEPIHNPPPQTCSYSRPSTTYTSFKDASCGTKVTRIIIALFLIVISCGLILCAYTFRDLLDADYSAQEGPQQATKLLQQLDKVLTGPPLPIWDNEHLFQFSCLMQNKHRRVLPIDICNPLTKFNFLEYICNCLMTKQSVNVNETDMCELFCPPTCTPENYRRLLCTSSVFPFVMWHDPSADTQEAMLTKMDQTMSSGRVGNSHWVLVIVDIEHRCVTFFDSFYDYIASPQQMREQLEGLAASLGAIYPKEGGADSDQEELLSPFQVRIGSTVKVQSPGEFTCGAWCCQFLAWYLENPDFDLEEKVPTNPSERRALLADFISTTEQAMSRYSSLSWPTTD
Briefly: Mixed type inhibition of Chlamydia trachomatis DUB2 incubated for 60 mins.

Another data set relates to Chlamydia trachomatis. As to the kind of experiment: Anti-chlamydial activity against Chlamydia trachomatis serovar L2 infected in human HEp-2 cells assessed as inhibition of chlamydial inclusion incubated for 16 hrs by Alexa488/DAPI staining based immunofluorescence assay. The data set is classed as functional, organism-based. As to conditions: serovar L2, HEp-2, 16 h.

The next data set concerns HEp-2. As to the kind of experiment: Cytotoxicity against human HEp-2 cells assessed as reduction in cell viability at 4 to 256 ug/mL measured after 20 hrs by XTT assay. Type of data set: toxicity, cell-based. As to conditions: hep-2, 20 h, dose 4-256 µg/ml. For orientation: Tetrazolium dyes change colour on reduction, which living cells bring about.
The nature of data set [6]: Cytotoxicity against HDFa cells assessed as cell viability at 128 ug/mL measured after 20 hrs by XTT assay relative to control. The conditions noted are these: human, at 128 µg/mL, read-out: Activity. Type of data set: toxicity, cell-based.
Data set [7] is described as follows: Cytotoxicity against HDFa cells assessed as reduction in cell viability at 16 ug/mL measured after 20 hrs by XTT assay. The data set is classed as toxicity, cell-based. The conditions noted are these: human, dose 16 µg/ml.
Another data set relates to Staphylococcus aureus. As to the kind of experiment: Antimicrobial activity against methicillin- resistant Staphylococcus aureus JE2 upto 256 microg/ml incubated for 20 hrs by resazurin staining based microtiter plate reader analysis. As to conditions: dose <= 256.0 µg/ml. Type of data set: functional, organism-based. (In general: Resazurin is reduced to fluorescent resorufin, in cell work by metabolically active cells.)

Data set [8] addresses T1, Deubiquitinase and deneddylase Dub1 (Chlamydia trachomatis serovar L2 (strain ATCC VR-902B / DSM 19102 /434/Bu)). As to the kind of experiment: Non-covalent inhibition of recombinant Chlamydia trachomatis DUB1 (130 to 401 residues) using Ub-Rh110Gly as fluorogenic substrate incubated for 10 to 360 mins by enzymatic analysis. The conditions noted are these: time 10-360 min.

Another data set deals with Escherichia coli. Briefly: Antimicrobial activity against Escherichia coli K12 upto 256 microg/ml incubated for 20 hrs by resazurin staining based microtiter plate reader analysis. The conditions noted are these: dose <= 256.0 µg/ml. The data set is classed as functional, organism-based.

The inhibition is the share of the control response that was lost under treatment. For orientation: IC50 means the point on the concentration scale where inhibition reaches its midpoint. As for `N#Cc1nccc(C(=O)NCc2nn(C(=O)Cc3ccccc3)c3ccccc23)n1`, the inhibition result in data set [1] was “Active; Complete Inhibition Not Observed”; in data set [2], “Active; Partial Inhibition Observed”; in data set [3] it was < 25%; in [4], < 25%. In addition, the inhibition entry in data set [5] and in data set [8] was “Active” in each case. The IC50 in the data set on Chlamydia trachomatis amounted to 25.6 µg/mL (≈ 64.6 µM). Besides, the Activity result is “Non-toxic” in the data set on HEp-2 and “Toxic” in data set [7]. The viability at 20 h, 128 ug/mL in data set [6] was found to be 67%. Moreover, the outcome in the data set on Staphylococcus aureus and with Escherichia coli was inactive.
